Laboratory results: US20260193265A1, “Phyllochlorin analogues suitable for use in photodynamic therapy (PDT)” (RMW CHO Group Limited, priority 2022, published 2026)
Counter-ions that a name gives are not always drawn. Like-named read-outs stand apart in the source and are kept apart here.

Columns and labels:
[1] = tested on: Human ovarian cancer cell line SKOV3; assay: Phototoxicity in SKOV3 cells after 652 nm laser activation (AlamarBlue viability); format: cell-based; settings: for range of phototoxicity IC90 values in vitro: result in words
Protocol: Samples were stored at 4° C. protected from light.
All data are shown as mean±SD (where appropriate).
To test for phototoxicity, cells incubated with phyllochlorin analogues (0-10 μM in DMSO) had culture media replaced after 24 hours (as above) and were then exposed to a 652 nm laser (Invion) with laser density at 50 mW/cm^2 for 5 mins (total 15 J/cm^2). Following activation, cells were cultured for a further 24 hours. Media was then replaced with fresh media containing AlamarBlue, and % viable cells remaining assessed as above. Controls included cells treated with phyllochlorin analogues but not activated by laser light; cells without phyllochlorin analogue treatment but with laser light; and untreated controls. All measurements were made in quadruplicate.

[2] = tested on: Human ovarian cancer cell line SKOV3; assay: Inherent cytotoxicity (dark toxicity) in SKOV3 cells (AlamarBlue viability); settings: 24 hours incubation, no light, AlamarBlue 6 hours
Protocol: (§1) Photosensitizers (e.g. phyllochlorin analogue, chlorin e4 disodium (provided by Advanced Molecular Technologies, Scoresby) or Talaporfin sodium (purchased from Focus Bioscience cat #HY-16477-5MG)) were resuspended in 100% dimethylsulfoxide (DMSO) at a concentration of 5.5 mM. Samples were stored at 4° C. protected from light.
(§2) For in vitro experiments, photosensitizers (stock solution 5.5 mM in 100% DMSO) were diluted 1:100 in concentrated excipient solution (final 55 μM photosensitizer in 10% w/v Kollidon-12, 42.4% w/v polysorbate 80, 0.6% w/v citric acid anhydrous, 40% w/v ethanol, 1.0% DMSO). Serial dilutions were prepared in cell culture media (Dulbecco's Modified Eagle Medium/Nutrient Mixture F-12 (DMEM/F-12)) supplemented with 10% v/v Fetal Bovine Serum, 100 U/mL penicillin, 100 μg/mL streptomycin and the same excipient solution at a constant 1:55 dilution.
(§3) Human ovarian cancer cell line SKOV3 (ATCC #HTB-77) was maintained in Dulbecco's Modified Eagle Medium/Nutrient Mixture F-12 (DMEM/F-12), supplemented with 10% v/v Fetal Bovine Serum, 100 U/mL penicillin and 100 μg/mL streptomycin. Monolayer cultures were grown in a humidified incubator at 37° C. with 5% CO2. Once cells had reached ~80% confluence, spent media was replaced with media containing photosensitizer at the required concentration and cells were incubated for the desired period of time to allow photosensitizer uptake.
(§4) All data were analysed using GraphPad PRISM v8.3.1 (549) (GraphPad Software, CA). Spectral absorbance and viability measurements were normalized in the range 0-100%, with a minimum of 0 and a maximum value determined from the dataset. Dose response was determined using a sigmoidal four-point non-linear regression with variable slope, and IC10 or IC90 calculated for each compound. All data are shown as mean±SD (where appropriate).
(§5) SKOV3 cells were seeded in 96-well black wall plates (Greiner #655090) at a cell density of 5000 cells in 100 μl culture medium per well. On reaching ~60% confluence, media was aspirated and replaced with fresh media containing the relevant phyllochlorin analogue from 0-100 μM in DMSO. Cells were incubated for a further 24 hours, allowing uptake of phyllochlorin analogues.
(§6) To test for inherent cytotoxicity (i.e. “dark toxicity”) of the phyllochlorin analogues, the culture media was replaced after 24 hours with fresh media containing 10% (v/v) AlamarBlue Cell Viability Reagent (ThermoFisher) and cells incubated at 37° C. for 6 hours. Untreated cells were used as a control. Fluorescence (Ex 555 nm/Em 596 nm) was measured using a Cytation 3 Cell Imaging Multi-Mode Reader (Biotek), and cytotoxicity assessed according to the % viable cells remaining. All measurements were made in quadruplicate.
(§7) The phototoxicity and inherent cytotoxicity (i.e. “dark toxicity”) of several phyllochlorin analogues were assessed as previously using SKOV3 ovarian cancer cells. For comparative purposes, phyllochlorin analogues were compared against chlorin e4 disodium and Talaporfin sodium, a clinically approved photosensitizer used in the photodynamic treatment of lung cancers. Phototoxicity IC90 values and dark toxicity IC10 values were calculated using a log[inhibitor]-vs normalized response dose curve with variable slope, using the formula Y=100/(1+(IC90/X)^HillSlope (phototoxicity IC90)) or Y=100/(1+(IC10/X)^HillSlope (dark toxicity IC10)).

[3] = tested on: Human ovarian cancer cell line SKOV3
Protocol: as §1, §2, §3, §4, §5, §6, §7

[4] = Homo sapiens, SK-OV-3, light or radiation study, 24 hours uptake, 652 nm laser 50 mW/cm^2 for 5 mins (total 15 J/cm^2), viability 24 hours after activation, read-out: Phototoxicity μM (IC90)
[5] = Homo sapiens, SK-OV-3, light or radiation study, 652 nm laser, read-out: apparent phototoxicity IC90

| SMILES | IC90 [1, 4] | Dark toxicity μM (IC10) [2] | Dark toxicity μM (IC10) ([3]; human, 24 h) | IC90 [1, 5] | IC90 ([1]; 24 hours uptake, 652 nm laser 50 mW/cm^2 for 5 mins (total 15 J/cm^2), viability 24 hours after activation, read-out: Phototoxicity μM (IC90)) | range of phototoxicity IC90 values in vitro [1] | Dark toxicity μM (IC10) [3] |
| --- | --- | --- | --- | --- | --- | --- | --- |
| C=Cc1c(C)c2cc3nc(c(C)c4cc(C)c(cc5nc(cc1[nH]2)C(C)=C5CC)[nH]4)[C@@H](CCC[P+](c1ccccc1)(c1ccccc1)c1ccccc1)[C@@H]3C [Compound 10, phyllochlorin 3-triphenylphosphoniumpropyl iodide] | 0.003 µM | 4.52 µM |  |  |  |  |  |
| C=Cc1c(C)c2cc3nc(c(C)c4cc(C)c(cc5nc(cc1[nH]2)C(C)=C5CC)[nH]4)[C@@H](CCCOC(C)=O)[C@@H]3C [Compound 2, 3-((7S,8S)-18-ethyl-2,5,8,12,17-pentamethyl-13-vinyl-7H,8H-porphyrin-7-yl)propyl acetate] | 0.48 µM |  | 66.93 µM |  |  |  |  |
| C=Cc1c(C)c2cc3nc(c(C)c4cc(C)c(cc5nc(cc1[nH]2)C(C)=C5CC)[nH]4)[C@@H](CCCSCCCS[C@@H]1O[C@H](CO)[C@@H](O)[C@H](O)[C@H]1O)[C@@H]3C [Compound 4, (2S,3R,4S,5S,6R)-2-((3-((3-((7S,8S)-18-ethyl-2,5,8,12,17-pentamethyl-13-vinyl-7H,8H-porphyrin-7-yl)propyl)thio)propyl)thio)-6-(hydroxymethyl)tetrahydro-2H-pyran-3,4,5-triol] | 0.07 µM |  | 23.13 µM | < 0.1 µM |  |  |  |
| C=Cc1c(C)c2cc3nc(c(C)c4cc(C)c(cc5nc(cc1[nH]2)C(C)=C5CC)[nH]4)[C@@H](CCCN)[C@@H]3C [Compound 7, phyllochlorin 3-aminopropyl] | 0.05 µM |  | 11.55 µM | < 0.1 µM |  |  |  |
| C=Cc1c(C)c2cc3nc(c(C)c4cc(C)c(cc5nc(cc1[nH]2)C(C)=C5CC)[nH]4)[C@@H](CCCO)[C@@H]3C [Compound 1, 3-((7S,8S)-18-ethyl-2,5,8,12,17-pentamethyl-13-vinyl-7H,8H-porphyrin-7-yl)propan-1-ol] | 0.12 µM |  | 46.10 µM |  |  |  |  |
| C=Cc1c(C)c2cc3nc(c(C)c4cc(C)c(cc5nc(cc1[nH]2)C(C)=C5CC)[nH]4)[C@@H](CCCNC(=O)[C@@H](N)C(C)C)[C@@H]3C [Compound 8, phyllochlorin 3-aminopropyl-valine amide hydrochloride] | 0.09 µM |  | 11.89 µM | < 0.1 µM |  |  |  |
| C=Cc1c(C)c2cc3nc(c(C)c4[nH]c(cc5nc(cc1[nH]2)C(C)=C5CC)c(C)c4C(=O)O)[C@@H](CCC(=O)O)[C@@H]3C [Chlorin e4 disodium, reference compound] |  |  |  |  | 21.3 µM | μM range | 40.23 µM |
| C=Cc1c(C)c2cc3nc(c(CC(=O)N[C@@H](CC(=O)O)C(=O)O)c4[nH]c(cc5nc(cc1[nH]2)C(C)=C5CC)c(C)c4C(=O)O)[C@@H](CCC(=O)O)[C@@H]3C [Talaporfin sodium, reference compound] |  |  | 11.10 µM |  |  | μM range |  |
| C=Cc1c(C)c2cc3nc(c(C)c4cc(C)c(cc5nc(cc1[nH]2)C(C)=C5CC)[nH]4)[C@@H](CCC[n+]1ccccc1)[C@@H]3C [Compound 9, phyllochlorin 3-pyridiniumpropyl iodide] | 0.006 µM | 4.91 µM |  |  |  |  |  |
| C=Cc1c(C)c2cc3nc(c(C)c4cc(C)c(cc5nc(cc1[nH]2)C(C)=C5CC)[nH]4)[C@@H](CCCS[C@@H]1O[C@H](CO)[C@@H](O)[C@H](O)[C@H]1O)[C@@H]3C [Compound 5] | 0.05 µM |  | 13.18 µM | < 0.1 µM |  |  |  |
